According to PubChem BioAssay (NCI):
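Each compound was tested at five concentrations against cells in 96-well plates for 48 hours. The concentration for full growth arrest is given as TGI.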

Legend:
Experiment in all cases: NCI-60 cell line screen, 48 h
[1] = system: IGROV1 ovarian
[2] = system: RXF 393 renal
[3] = system: DMS 114 small cell lung
[4] = system: SR leukemia
[5] = system: DMS 273 small cell lung
[6] = system: NCI-H23 lung
[7] = system: HL-60(TB) leukemia
[8] = system: SK-MEL-28 melanoma
[9] = system: HCT-116 colon
[10] = system: UACC-257 melanoma
[11] = system: SNB-78 CNS
[12] = system: OVCAR-3 ovarian
[13] = system: HS 578T breast
[14] = system: MDA-MB-231 breast
[15] = system: DU-145 prostate
[16] = system: PC-3 prostate
[17] = system: BT-549 breast
[18] = system: NCI/ADR-RES ovarian
[19] = system: T-47D breast
[20] = system: MCF7 breast

SMILES	TGI [1] [µM]	TGI [2] [µM]	TGI [3] [µM]	TGI [4] [µM]	TGI [5] [µM]	TGI [6] [µM]	TGI [7] [µM]	TGI [8] [µM]	TGI [9] [µM]	TGI [10] [µM]	TGI [11] [µM]	TGI [12] [µM]	TGI [13] [µM]	TGI [14] [µM]	TGI [15] [µM]	TGI [16] [µM]	TGI [17] [µM]	TGI [18] [µM]	TGI [19] [µM]	TGI [20] [µM]
C#CC(C)(C)OCCCCOc1cc(O)c2c(=O)c3ccccc3n(C)c2c1	> 100	> 100	> 100	> 100	> 100	> 100	> 100	> 100	> 100	> 100	> 100	> 100								
CN/N=C(\C)C(CN1CCCCC1)C(C1=C(O)c2ccccc2OC1)c1ccccc1 (configuration not stated)	> 100	> 100	> 100	> 100	> 100	> 100	> 100	> 100	> 100	> 100	> 100	> 100								
Nc1ccn(CCOC(c2ccccc2)P(=O)(O)O)c(=O)n1 (configuration not stated)	> 100	> 100	> 100	> 100	> 100	> 100	> 100	> 100	> 100	> 100	> 100	> 100								
COc1cccc(C=O)c1[O-].COc1cccc(C=O)c1[O-].[Zn+2]	> 100	> 100	> 100	> 100	> 100	> 100		> 100	> 100	99.2	> 100	92.6								
CC(C)(C)OC(=O)N1CC(C)(C)N2C(=O)C3(CCCO3)C12 (configuration not stated)	> 100	> 100	> 100		> 100	> 100	> 100	> 100	> 100	> 100	> 100	> 100								
O=C1NC(=S)NC(=O)C1=CC1CC1	> 100	> 100	> 100	> 100	> 100	> 100	> 100	> 100	> 100	> 100	> 100									
Brc1ccc(C=NC23CC4CC(CC(C4)C2)C3)cc1	> 100	> 100	> 100		> 100	> 100	> 100	> 100	> 100	> 100	> 100	> 100								
CC12C3CC4C5CC(C(C53)[C@@H]1NCc1ccccc1)C42 (some centres not stated)	> 100	> 100	> 100	> 100	> 100	> 100	> 100	> 100	> 100	> 100	> 100	> 100								
CC(C)c1cccc(C(C)C)c1NC(=O)C(=O)C1CCC2=C(Sc3ccccc3N2)C1=O (configuration not stated)	> 100	> 100	> 100	> 100	> 100	> 100	> 100	> 100	> 100	> 100	> 100	> 100								
CN1N=C2c3ccccc3OC(c3ccccc3)[C@H]2C1c1ccccc1 (some centres not stated)	> 100	88.5	> 100	> 100	> 100	> 100	> 100	> 100	> 100	> 100	> 100	> 100								
O=c1[nH]nc(CNc2ccc(Cl)cc2Cl)c2ccccc12	58.7	34.9	37.1	> 100	72.9		> 100	52.4	66.3	92.7	> 100	40.3								
N#CC(C(=O)CCC(=O)Nc1cccc(C(F)(F)F)c1)c1ccccc1 (configuration not stated)	> 100	> 100	> 100		> 100	> 100	> 100	> 100	> 100	> 100	> 100	> 100								
O=c1c(C(c2ccc([N+](=O)[O-])cc2)c2c(O)c3ccccc3n(-c3ccccc3)c2=O)c(O)c2ccccc2n1-c1ccccc1	> 100	40.1	73.5	62.7	> 100	34.3		66.5	76.5		> 100	70.5								
CC(C)(CCl)NC(=O)c1cccc(C(=O)NC(C)(C)CCl)n1	> 100	> 100	> 100	> 100	> 100	> 100	> 100	> 100	> 100		> 100	> 100								
COC(=O)N/N=C(\C)CC(=O)Nc1cccc([N+](=O)[O-])c1	> 100	> 100	> 100		> 100	> 100	> 100	> 100	> 100	> 100	> 100	> 100								
O=C1NC2(CCCC2)C2CCCCC12O (configuration not stated)	> 100	> 100	> 100	> 100	> 100	> 100	> 100	> 100	> 100	> 100	> 100	> 100								
COc1ccccc1NC(=O)CC(=O)n1nc(C)c(N=Nc2ccccc2Cl)c1C	> 100	> 100	> 100	97.9	> 100	> 44.7	> 100	> 100	> 100	> 100	57.1	> 100	> 100	> 100	> 100	> 100	> 100	> 100	> 100	> 100
